Results reported in patent US6479283B1, “Stimulation, culture and preservation of pancreatic cells” (Ascendia AB, priority 1997, dated 2002).

Columns and labels:
[1] = tested on: naked mice with induced diabetes; test: Transplantation of cultured ICC in naked mice with alloxan-induced diabetes; assay type: in vivo; conditions: second series, 1×3 μl ICC; 1 mM DG added to HPMC culture medium
Description: Transplantation in Naked Mice with Induced Diabetes
Diabetes was induced in naked mice by injection of alloxan (Dunn, J S, and McLetchie, Lancet 2 (1943) 384; Boquist L, Acta Pathol. Microbiol. Scand., Sect. A, 88 (1980) 201) resulting in […] within a few days indicated by blood glucose levels >25 mm. After about one week intact ICCs from other mice of this strain were transplanted to the […] anaesthetized animals. An incision was made in the abdominal wall and the left kidney was mobilized. A small hole was made in the kidney's thin […] capsule and a pipette containing ICC was carefully inserted therethrough under the capsule. The ICCs were deposited within the capsule, the pipette withdrawn and the abdominal wall and skin sutured.
In a first series of experiments an ICC standard dose of 2×3 μl corresponding to 600 ICC was injected. Three types of ICCs were compared:
(1) control, i.e. ICC islets cultured in medium RPMI 1640+10 mm nicotine amide+10% human serum (HS);
(2) ICC islets cultured in medium RPMI 1640+10 mm nicotine amide+10% human serum (HS)+9% of 1.5% HPMC in saline; […]
Numbers in square brackets indicate number of animals. […] Blood glucose was determined on day 7 and in weekly intervals thereafter. The arrow indicates nephrectomy, i.e., the kidney with ICC transplant was removed and blood glucose was determined one week thereafter. […]

[2] = tested on: fibroblast growth in ICC cultures; test: Fibroblast growth in ICC cultures; assay type: cell-based, porcine; conditions: 1 mM DG
Description: (§1) (3) ICC islets cultured in medium RPMI 1640+10 mm nicotine amide+10% human serum (HS)+9% of 1.5% HPMC in saline+1 mm 2-deoxyglucose (DG).

[3] = tested on: fetal porcine ICCs; test: Differentiation of fetal porcine ICCs (glucose stimulated release of insulin), separate experiments; assay type: cell-based
Description: as §1

## O=CC[C@@H](O)[C@H](O)[C@H](O)CO [DG, 2-deoxyglucose]
[1]
  Effect of DG on the reduction of blood glucose levels: clearly beneficial effect on the reduction of blood glucose levels
[2]
  Fibroblast growth: reduces fibroblast growth
[3]
  Differentiation giving rise to glucose stimulated release of insulin: does not affect the differentiation
